Assay results taken from patent publication US20140228286A1, “SPECIFIC PDE4B-INHIBITORS FOR THE TREATMENT OF DIABETES MELLITUS” (BOEHRINGER INGELHEIM INTERNATIONAL GMBH, priority 2013, published 2014).

molecular target: T1, PDE4B (Homo sapiens, UniProt Q07343); assay: PDE4B Scintillation Proximity (SPA) Assay; assay type: biochemical; settings: PDE4B active site fragment amino acids 152-484; [3H]cAMP; 30° C., one hour; read-out: Experimentally determined IC50-value for PDE4B inhibition
T1 construct: active site fragment comprising the amino acids 152-484
T1 sequence (Q07343 324-656): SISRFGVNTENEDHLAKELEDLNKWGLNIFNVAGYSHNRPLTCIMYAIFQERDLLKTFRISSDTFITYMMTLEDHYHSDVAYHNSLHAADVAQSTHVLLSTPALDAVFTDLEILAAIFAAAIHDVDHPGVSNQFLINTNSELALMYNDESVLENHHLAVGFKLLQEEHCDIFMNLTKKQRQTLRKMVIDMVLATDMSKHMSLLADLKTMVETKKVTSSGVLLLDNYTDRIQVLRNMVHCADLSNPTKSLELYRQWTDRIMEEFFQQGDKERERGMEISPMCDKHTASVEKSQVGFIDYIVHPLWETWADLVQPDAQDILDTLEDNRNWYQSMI
From the text: The IC50-values of the compounds of the invention (Examples 1.1 to 1.47) with respect to their PDE4B-inhibiting ability have been determined with a Scintillation Proximity (SPA) Assay (GE Healthcare, No. TRKQ7090). The Scintillation Proximity (SPA) Assay is based on the detection of the different affinities of the cyclic 3′-5′adenosine monophosphate (cAMP, low affinity) and the linear 5′-adenosine monophosphate (AMP, high affinity) to yttrium-silicate-scintillator beads. The cAMP-specific phosphodiesterase (PDE) PDE4B cleaves the 3′-phosphodiester bond of the tritium-labelled-[^3H]cAMP to the [^3H]5′-AMP. This [^3H]5′-AMP associates with the scintillator beads because of their higher affinity and causes scintillations (light flashes) which can be measured in a Wallac Microbeta Scintillation Counter.
10 μl of a [^3H]cAMP-solution (0.05 μCi in H2O, 10-30 Ci/mmol) are added to 89 μl of a PDE4B-enzyme-solution (active site fragment comprising the amino acids 152-484; 0.15-0.18 ng) in assay buffer (50 mM Tris HCl pH 7.5; 8.3 mM MgCl2; 1,7 mM ethylene glyclol tetraacetic acid (EGTA); 0.25 mg/ml bovine serum albumin (BSA)) and this mixture is incubated at 30° C. for one hour
a) without the compound to be tested (in the presence of 1 μl dimethylsulfoxide (DMSO), corresponding to 1% DMSO) and b) in the presence of the compound to be tested in a concentration of 125 μM, 25 μM, 5 μM, 1 μM, 200 nM, 40 nM, 8 nM, 1.6 nM, 0.32 nM, 0.064 nM, 0.0128 nM (dilution series in 5er-steps beginning from 125 μM until 0.0128 nM, in the presence of 1% DMSO).
After this incubation the reaction is stopped by the addition of 50 μl of bead-solution (500 mg beads/35 ml H2O, 18 mM zinc sulfate). In the following 45 minutes the beads have the opportunity to form a sediment. After that the scintillations are measured in the scintillation counter. If the tested compound is able to inhibit the enzymatic activity of the PDE4B-enzyme, less [^3H]AMP depending on the concentration of the tested compound is produced and less scintillations are measurable. […] The IC50-value stands for the compound concentration at which the PDE4B enzyme activity is inhibited to a half maximal value. Therefore the lower the IC50-value is the better is the PDE4B inhibition.

Structure (SMILES)	IC50
CN1C[C@@H](Nc2nc(N3CCC(Oc4ccc(F)cc4)CC3)nc3c2[S+]([O-])CC3)CCC1=O (stereo partly drawn) [Example 1.22, (S)-5-{2-[4-(4-fluorophenoxy)-piperidin-1-yl]-5-oxo-6,7-dihydro-5H-5λ4-thieno[3,2-d]pyrimidin-4-ylamino}-1-methylpiperidin-2-one]	2.3 nM
CC(C)(O)C1(Nc2nc(N3CCC(c4ccc(Cl)cc4)CC3)nc3c2[S+]([O-])CC3)CC1 (stereo not shown) [Example 1.25, 2-(1-{2-[4-(4-chlorophenyl)-piperidin-1-yl]-5-oxo-6,7-dihydro-5H-5λ^4-thieno[3,2-d]pyrimidin-4-ylamino}-cyclopropyl)-propan-2-ol]	1.8 nM
CN1C[C@@H](Nc2nc(N3CCC(Oc4ccc(C5=NCCO5)cc4)CC3)nc3c2[S+]([O-])CC3)CCC1=O (stereo partly drawn) [Example 1.28, (S)-5-(2-{4-[4-(4,5-dihydrooxazol-2-yl)-phenoxy]-piperidin-1-yl}-5-oxo-6,7-dihydro-5H-5λ^4-thieno[3,2-d]pyrimidin-4-ylamino)-1-methylpiperidin-2-one]	0.19 nM
COCC(=O)NCC1(c2ccccc2)CCN(c2nc3c(c(NC4CCOCC4)n2)[S+]([O-])CC3)CC1 (stereo not shown) [Example 1.31, 2-methoxy-N-{1-[5-oxo-4-(tetrahydropyran-4-ylamino)-6,7-dihydro-5H-5λ^4-thieno[3,2-d]pyrimidin-2-yl]-4-phenylpiperidin-4-ylmethyl}-acetamide]	5.7 nM
CN(C(=O)c1ccc(OC2CCN(c3nc4c(c(NC5CCOCC5)n3)[S+]([O-])CC4)CC2)cc1)C1CC1 (stereo not shown) [Example 1.33, N-cyclopropyl-N-methyl-4-{1-[5-oxo-4-(tetrahydropyran-4-ylamino)-6,7-dihydro-5H-5λ^4-thieno[3,2-d]pyrimidin-2-yl]-piperidin-4-yloxy}-benzamide]	7.5 nM
Cc1oc(C2CCN(c3nc4c(c(N[C@H]5CCC(=O)N(C)C5)n3)[S+]([O-])CC4)CC2)nc1-c1ccccc1 (stereo partly drawn) [Example 1.36, (S)-1-methyl-5-{2-[4-(5-methyl-4-phenyloxazol-2-yl)-piperidin-1-yl]-5-oxo-6,7-dihydro-5H-5λ^4-thieno[3,2-d]pyrimidin-4-ylamino}-piperidin-2-one]	0.4 nM
Cc1oc(C2CCN(c3nc4c(c(NC5(CO)CC5)n3)[S+]([O-])CC4)CC2)nc1-c1ccccc1 (stereo not shown) [Example 1.37, (1-{2-[4-(5-methyl-4-phenyloxazol-2-yl)-piperidin-1-yl]-5-oxo-6,7-dihydro-5H-5λ^4-thieno[3,2-d]pyrimidin-4-ylamino}-cyclopropyl)-methanol]	3.5 nM
CN1C[C@@H](Nc2nc(N3CCC(c4nc(-c5ccccc5)c(-c5ccccc5)o4)CC3)nc3c2[S+]([O-])CC3)CCC1=O (stereo partly drawn) [Example 1.38, (S)-5-{2-[4-(4,5-diphenyloxazol-2-yl)-piperidin-1-yl]-5-oxo-6,7-dihydro-5H-5λ^4-thieno[3,2-d]pyrimidin-4-ylamino}-1-methylpiperidin-2-one]	0.2 nM
[O-][S+]1CCc2nc(N3CCC(CO)(c4ccc(Cl)cc4)CC3)nc(NC3CCOCC3)c21 (stereo not shown) [Example 1.39, {4-(4-chlorophenyl)-1-[5-oxo-4-(tetrahydropyran-4-ylamino)-6,7-dihydro-5H-5λ^4-thieno[3,2-d]pyrimidin-2-yl]-piperidin-4-yl}-methanol]	1.8 nM
Cc1nc(C2CCN(c3nc4c(c(NC5(CO)CC5)n3)[S+]([O-])CC4)CC2)oc1-c1ccc(Cl)cc1 (stereo not shown) [Example 1.40, [1-(2-{4-[5-(4-chlorophenyl)-4-methyloxazol-2-yl]-piperidin-1-yl}-5-oxo-6,7-dihydro-5H-5λ^4-thieno[3,2-d]pyrimidin-4-ylamino)-cyclopropyl]-methanol]	0.6 nM
N#Cc1ccc(OC2CCN(c3nc4c(c(NC5(CO)CC5)n3)[S+]([O-])CC4)CC2)cc1 (stereo not shown) [Example 1.43, 4-{1-[4-(1-hydroxymethylcyclopropylamino)-5-oxo-6,7-dihydro-5H-5λ^4-thieno[3,2-d]pyrimidin-2-yl]-piperidin-4-yloxy}-benzonitrile]	3.5 nM

Further lines, results first:

IC50	Structure (SMILES)
1.7 nM	[O-][S+]1CCc2nc(N3CCC(Oc4ccc(C5=NCCO5)cc4)CC3)nc(NC3CCOCC3)c21 (stereo not shown) [Example 1.23, (2-{4-[4-(4,5-dihydrooxazol-2-yl)-phenoxy]-piperidin-1-yl}-5-oxo-6,7-dihydro-5H-5λ^4-thieno[3,2-d]pyrimidin-4-yl)-(tetrahydropyran-4-yl)-amine]
7 nM	O=C(O)c1ccc(OC2CCN(c3nc4c(c(NC5CCOCC5)n3)[S+]([O-])CC4)CC2)cc1 (stereo not shown) [Example 1.24, 4-{1-[5-oxo-4-(tetrahydropyran-4-ylamino)-6,7-dihydro-5H-5λ^4-thieno[3,2-d]pyrimidin-2-yl]-piperidin-4-yloxy}-benzoic acid]
38 nM	Cn1cc(C2CCN(c3nc4c(c(NC5CCOCC5)n3)[S+]([O-])CC4)CC2)c2cc(C(C)(C)C)ccc21 (stereo not shown) [Example 1.26, {2-[4-(5-tert-butyl-1-methyl-1H-indol-3-yl)-piperidin-1-yl]-5-oxo-6,7-dihydro-5H-5λ^4-thieno[3,2-d]pyrimidin-4-yl}-(tetrahydropyran-4-yl)-amine]
21 nM	Cn1nc(C2CCN(c3nc4c(c(NC5CCOCC5)n3)[S+]([O-])CC4)CC2)cc1-c1ccco1 (stereo not shown) [Example 1.27]
1.7 nM	Cn1nc(-c2ccco2)cc1C1CCN(c2nc3c(c(NC4CCOCC4)n2)[S+]([O-])CC3)CC1 (stereo not shown) [Example 1.29, {2-[4-(5-furan-2-yl-2-methyl-2H-pyrazol-3-yl)-piperidin-1-yl]-5-oxo-6,7-dihydro-5H-5λ^4-thieno[3,2-d]pyrimidin-4-yl}-(tetrahydropyran-4-yl)-amine]
33.4 nM	Cn1c(C2CCN(c3nc4c(c(NC5CCOCC5)n3)[S+]([O-])CC4)CC2)nc2cnccc21 (stereo not shown) [Example 1.30, {2-[4-(1-methyl-1H-imidazo[4,5-c]pyridin-2-yl)-piperidin-1-yl]-5-oxo-6,7-dihydro-5H-5λ^4-thieno[3,2-d]pyrimidin-4-yl}-(tetrahydropyran-4-yl)-amine]
8.5 nM	CN(C(=O)c1ccc(C2CCN(c3nc4c(c(NC5CCOCC5)n3)[S+]([O-])CC4)CC2)cc1)C1CC1 (stereo not shown) [Example 1.32, N-cyclopropyl-N-methyl-4-{1-[5-oxo-4-(tetrahydropyran-4-ylamino)-6,7-dihydro-5H-5λ^4-thieno[3,2-d]pyrimidin-2-yl]-piperidin-4-yl}-benzamide]
8 nM	[O-][S+]1CCc2nc(N3CCC(Oc4ccncc4)CC3)nc(NC3CCOCC3)c21 (stereo not shown) [Example 1.34, {5-oxo-2-[4-(pyridin-4-yloxy)-piperidin-1-yl]-6,7-dihydro-5H-5λ^4-thieno[3,2-d]pyrimidin-4-yl}-(tetrahydropyran-4-yl)-amine]
6.7 nM	[O-][S+]1CCc2nc(N3CCC(O)(c4ccc(Cl)cc4)CC3)nc(NC3CCOCC3)c21 (stereo not shown) [Example 1.41, 4-(4-chlorophenyl)-1-[5-oxo-4-(tetrahydropyran-4-ylamino)-6,7-dihydro-5H-5λ^4-thieno[3,2-d]pyrimidin-2-yl]-piperidin-4-ol]
3.8 nM	COC1(c2ccc(Cl)cc2)CCN(c2nc3c(c(NC4CCOCC4)n2)[S+]([O-])CC3)CC1 (stereo not shown) [Example 1.42, {2-[4-(4-chlorophenyl)-4-methoxypiperidin-1-yl]-5-oxo-6,7-dihydro-5H-5λ^4-thieno[3,2-d]pyrimidin-4-yl}-(tetrahydropyran-4-yl)-amine]
2.7 nM	[O-][S+]1CCc2nc(N3CCC(c4nc5c(o4)CCCC5)CC3)nc(NC3CCOCC3)c21 (stereo not shown) [Example 1.44]
